Key:
HEK293T cells = assay: Cell viability assay (ATP content), HEK293T cells; type: cell-based; details: up to 20 μM, 24 h
Method: FIG. 23—Cell viability assay (ATP content) of […] cells in the presence of compounds. Measurement of ATP content of HEK293T cells upon incubating with BRD7087 and BRD5779 (5-20 μM) for 24 h. Error bars represent ±S.D. from technical replicates (n=3).
FIG. 67. Cell viability assay (ATP content) of HEK293T cells in the presence of compounds. Measurement of ATP content of HEK293T cells upon incubating with BRD7087 and BRD5779 (5-20 μM) for 24 h. Error bars represent ±S.D. from technical replicates (n=3).

U2OS.eGFP.PEST cells = assay: Cell viability assay (ATP content), U2OS.eGFP.PEST cells; type: cell-based, human; details: up to 20 μM, 24 h
Method: FIG. 22—Cell viability assay (ATP content) of U2OS.eGFP.PEST cells in the presence of compounds. Measurement ATP content of U2OS.eGFP.PEST cells upon incubating with BRD7087 and BRD5779 (5-20 μM) for 24 h. Error bars represent ±S.D. from technical replicates (n=3).
FIG. 66. Cell viability assay (ATP content) of U2OS.eGFP.PEST cells in the presence of compounds. Measurement of ATP content of U2OS.eGFP.PEST cells upon incubating with BRD7087 and BRD5779 (5-20 μM) for 24 h. Error bars represent ±S.D. from technical replicates (n=3).

S. aureus RN4220 strain = assay: Toxicity study of compounds in bacterial culture (no phage); type: cell-based; details: 20 μM; 16 h; inhibitor alone
Method: FIG. 79. Toxicity study of compounds in bacterial culture. Bacterial growth study in the presence of the compound. Bacterial cell S. aureus RN4220 strain was allowed to grow either in the presence of DMSO or 20 μM of compound BRD7087 or BRD5779 over 16 h. The experiment was performed in three technical replicates.
Bacterial study. Plasmid pRH248 harboring SpCas9, tracrRNA and a single-spacer array ([…]) (SEQ ID 13) No. targeting phage (DNM474 was constructed via BsaI cloning onto pDB114 as described in Heler et al 6. Plate reader growth curves of bacteria infected with phage were conducted as described previously with minor modifications 7. Overnight cultures were diluted 1:100 into 2 ml of fresh BHI supplemented with appropriate antibiotics and 5 mM CaCl2) and grown to an OD600 of ˜0.2. Immune cells carrying pRH248 were diluted with cells lacking CRISPR-Cas in a 1:10,000 ratio. […] To produce plate reader growth curves, 200 μL of infected cultures, normalized for OD600, were transferred to a 96-well plate in triplicate. […]
Bacterial study. […] Plate reader growth curves of bacteria infected with phage were conducted as described previously with minor modifications^7. […] To produce plate reader growth curves, 200 μL of infected cultures, normalized for OD600, were transferred to a 96-well plate in triplicate. […]

SpCas9:gRNA complex = molecular target: T1, SpCas9:gRNA complex (Streptococcus pyogenes serotype M1, UniProt Q99ZW2); assay: 19F NMR binding assay; details: for Fractional Occupancy (1-Ibound/I0) / LW (linewidth of 19F signal): [Ligand] 50 μM
T1 construct: His6 (N, cleaved yes); made in house; host or cells: E. coli BL21 Star (DE3)
Method: (§1) NMR binding assay. All samples were prepared with 50 μM BRD7087 in 20 mM Tris buffer (pH=7.4) with varying concentrations of SpCas9:gRNA in a 3 mm NMR tube. Experiments were performed on a 600 MHz (19F: 564.71 MHz) Bruker Avance III NMR spectrometer equipped with a 5 mm QCI-F CryoProbe and a SampleJet for automated sample handling. To acquire spectra, a standard one-pulse 19F experiment with WALTZ-16 for proton decoupling during acquisition, a 5 second recycle delay, and 256 scans was used. All spectra were recorded at 280 K. NMR data were apodized with a 1 Hz exponential function prior to Fourier transformation. All spectra were baseline corrected; peak widths and intensities were extracted using the automated line-fitting feature provided with the MNova software package. Determination of the value of Kd was accomplished using least squares fitting to the expression given in Equation 8 in the paper by Shortridge et al.2.
Kd values obtained by NMR rely on the assumption that ligand binding is in fast-exchange, which typically holds true for ligands with Kd in the 0.5 μM to 20 mM range.
as §1, with “(^19F:” for “(19F:”, “^19F” for “19F”, “al.^2.” for “al.2.”

T1 sequence (Q99ZW2 whole entry, one chain of several): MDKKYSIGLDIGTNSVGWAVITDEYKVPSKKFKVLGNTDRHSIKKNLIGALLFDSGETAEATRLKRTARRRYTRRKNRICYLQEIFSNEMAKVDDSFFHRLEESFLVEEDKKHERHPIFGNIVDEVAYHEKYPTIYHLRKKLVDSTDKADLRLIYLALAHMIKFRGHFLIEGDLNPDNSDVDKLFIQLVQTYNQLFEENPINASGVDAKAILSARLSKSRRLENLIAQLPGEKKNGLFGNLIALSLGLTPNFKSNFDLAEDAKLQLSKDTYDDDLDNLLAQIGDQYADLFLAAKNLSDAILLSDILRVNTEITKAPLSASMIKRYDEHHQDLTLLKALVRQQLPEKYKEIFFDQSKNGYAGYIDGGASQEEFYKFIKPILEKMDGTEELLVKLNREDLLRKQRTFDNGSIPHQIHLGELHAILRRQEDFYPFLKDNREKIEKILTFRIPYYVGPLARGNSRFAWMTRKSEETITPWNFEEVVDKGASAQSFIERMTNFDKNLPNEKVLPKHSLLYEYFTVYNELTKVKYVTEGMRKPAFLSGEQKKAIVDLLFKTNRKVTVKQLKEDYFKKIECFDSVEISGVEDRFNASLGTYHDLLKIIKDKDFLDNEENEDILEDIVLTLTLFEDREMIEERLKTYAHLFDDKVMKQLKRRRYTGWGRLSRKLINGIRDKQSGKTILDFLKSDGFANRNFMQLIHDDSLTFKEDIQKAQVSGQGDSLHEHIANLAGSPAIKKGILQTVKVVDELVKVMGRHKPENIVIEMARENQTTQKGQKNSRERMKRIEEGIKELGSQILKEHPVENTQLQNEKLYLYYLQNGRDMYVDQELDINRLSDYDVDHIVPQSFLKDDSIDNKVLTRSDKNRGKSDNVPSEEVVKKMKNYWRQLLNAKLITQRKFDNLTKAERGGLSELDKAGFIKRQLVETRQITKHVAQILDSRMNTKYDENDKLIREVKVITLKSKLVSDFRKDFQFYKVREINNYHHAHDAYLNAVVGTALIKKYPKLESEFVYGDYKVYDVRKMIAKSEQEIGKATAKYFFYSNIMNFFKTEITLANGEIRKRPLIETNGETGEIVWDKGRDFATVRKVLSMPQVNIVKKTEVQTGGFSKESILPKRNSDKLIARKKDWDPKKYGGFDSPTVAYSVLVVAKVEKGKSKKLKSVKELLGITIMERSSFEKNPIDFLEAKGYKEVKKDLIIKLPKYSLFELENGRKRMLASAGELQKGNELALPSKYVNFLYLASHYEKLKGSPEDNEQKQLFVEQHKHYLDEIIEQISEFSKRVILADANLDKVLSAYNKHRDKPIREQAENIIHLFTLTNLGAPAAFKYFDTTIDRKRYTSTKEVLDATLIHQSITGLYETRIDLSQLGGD

## COc1ccc(-c2ccc3c(c2)[C@H]2[C@H](CCN2Cc2ccncc2)[C@@H](CO)N3)cc1 [BRD5779, ((3aR,4S,9bR)-8-(4-Methoxyphenyl)-1-(pyridin-4-ylmethyl)-2,3,3a,4,5,9b-hexahydro-1H-pyrrolo[3,2-c]quinolin-4-yl)methanol]
HEK293T cells
  cytotoxicity: cellular ATP-levels: did not significantly alter the cellular ATP-levels
U2OS.eGFP.PEST cells
  cytotoxicity: cellular ATP-levels: did not significantly alter the cellular ATP-levels
S. aureus RN4220 strain
  toxicity to bacteria in the absence of phage: non-toxic in the absence of phage

## OC[C@H]1Nc2ccc(-c3cccc(F)c3)cc2[C@H]2[C@@H]1CCN2Cc1ccncc1 [BRD7087, ((3aR,4S,9bR)-8-(3-Fluorophenyl)-1-(pyridin-4-ylmethyl)-2,3,3a,4,5,9b-hexahydro-1H-pyrrolo[3,2-c]quinolin-4-yl)methanol]
HEK293T cells
  cytotoxicity: cellular ATP-levels: did not significantly alter the cellular ATP-levels
U2OS.eGFP.PEST cells
  cytotoxicity: cellular ATP-levels: did not significantly alter the cellular ATP-levels
S. aureus RN4220 strain
  toxicity to bacteria in the absence of phage: non-toxic in the absence of phage
SpCas9:gRNA complex; 50 μM ligand, 20 mM Tris pH 7.4, 280 K, read-out: binding constant Kd (method of Shortridge et al., peak intensities)
  Kd: ~2200 nM
SpCas9:gRNA complex; 50 μM ligand, broadening from 0.75 μM SpCas9:gRNA
  binding by differential line broadening of 19F signal: relatively tight binding
SpCas9:gRNA complex; [Protein:gRNA] 0.75 μM
  Fractional Occupancy (1-Ibound/I0): 0.1307
  LW (linewidth of 19F signal): 4.3 Hz
SpCas9:gRNA complex; [Protein:gRNA] 1.0 μM
  Fractional Occupancy (1-Ibound/I0): 0.1817
  LW (linewidth of 19F signal): 4.6 Hz
SpCas9:gRNA complex; [Protein:gRNA] 1.25 μM
  Fractional Occupancy (1-Ibound/I0): 0.3042
  LW (linewidth of 19F signal): 5.3 Hz
SpCas9:gRNA complex; [Protein:gRNA] 1.5 μM
  Fractional Occupancy (1-Ibound/I0): 0.3436
  LW (linewidth of 19F signal): 5.9 Hz
SpCas9:gRNA complex; [Protein:gRNA] 1.75 μM
  Fractional Occupancy (1-Ibound/I0): 0.4015
  LW (linewidth of 19F signal): 6.3 Hz

Source: patent US11760984B2, “CRISPR protein inhibitors” (THE BROAD INSTITUTE, INC., priority 2017, dated 2023)
